These molecules were tested against STAT3 (Homo sapiens, UniProt P40763) (assay: STAT3 HiBiT degradation assay in transfected A549 cells). Details: A549, 24 h; read-out: STAT3 HiBiT A549 degradation 24 h: Average external-Abs DC50.
Format: cell-based
Design: expressed in transfected cells; host or cells: A549
Summary of the method: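 Transfected A549 cells (~2000/well) plated 24 h, then treated 24 h at 37 °C, 5% CO2 with a 3-fold, 10-point compound dilution. HiBiT lytic luminescence read after 10 min at room temperature; remaining STAT3 normalized to negative and positive controls, four-parameter fit. DC50 binned A <0.01, B 0.01–0.1, C 0.1–1.0, D >1.0 µM.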

Sequence of STAT3 (P40763 whole entry): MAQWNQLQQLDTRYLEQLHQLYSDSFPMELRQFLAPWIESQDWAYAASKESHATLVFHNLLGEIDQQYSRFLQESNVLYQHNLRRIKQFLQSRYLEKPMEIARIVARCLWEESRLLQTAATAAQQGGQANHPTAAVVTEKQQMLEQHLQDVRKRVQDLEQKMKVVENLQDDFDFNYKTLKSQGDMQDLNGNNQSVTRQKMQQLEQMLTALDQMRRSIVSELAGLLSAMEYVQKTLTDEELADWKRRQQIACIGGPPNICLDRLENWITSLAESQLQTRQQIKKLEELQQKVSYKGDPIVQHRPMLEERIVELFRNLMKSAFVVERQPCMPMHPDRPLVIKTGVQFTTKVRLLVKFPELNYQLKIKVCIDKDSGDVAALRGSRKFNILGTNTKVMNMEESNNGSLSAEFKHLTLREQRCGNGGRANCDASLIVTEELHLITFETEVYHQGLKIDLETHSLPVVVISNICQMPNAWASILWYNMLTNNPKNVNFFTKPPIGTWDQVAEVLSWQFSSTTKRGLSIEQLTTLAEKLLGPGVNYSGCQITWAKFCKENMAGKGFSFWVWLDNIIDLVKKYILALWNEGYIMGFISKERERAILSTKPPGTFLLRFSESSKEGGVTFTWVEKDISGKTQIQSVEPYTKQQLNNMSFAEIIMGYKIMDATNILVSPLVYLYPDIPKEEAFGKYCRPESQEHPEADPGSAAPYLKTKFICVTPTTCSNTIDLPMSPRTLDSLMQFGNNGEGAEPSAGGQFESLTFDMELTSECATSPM

| Compound | DC50 [nM] |
| --- | --- |
| Cc1ncsc1-c1ccc([C@H](C)NC(=O)[C@@H]2C[C@@H](O)CN2C(=O)[C@@H](NC(=O)CCCCCc2cc(Cl)cc(OC[C@H](CCC(N)=O)NC(=O)[C@@H]3Cc4cccc5c4N3C(=O)[C@@H](NC(=O)c3cc4cc(C(=O)P(=O)(O)O)ccc4[nH]3)CC5)c2F)C(C)(C)C)cc1 [Compound I-244, 2-[[(2S,11S)-2-[[(2S)-4-carbamoyl-1-[5-chloro-2-fluoro-3-(5-[[(2S)-1-[(2S,4R)-4-hydroxy-2-[[(1S)-1-[4-(4-methyl-1,3-thiazol-5-yl)phenyl]ethyl]carbamoyl]pyrrolidin-1-yl]-3,3-dimethyl-1-oxobutan-2-yl]carbamoyl]pentyl)phenoxy]butan-2-yl]carbamoyl]-12-oxo-1-azatricyclo[6.4.1.0^[4,13]]trideca-4(13),5,7-trien-11-yl]carbamoyl]-1H-indole-5-carbonylphosphonic acid] | < 10 |
| Cc1ncsc1-c1ccc([C@H](C)NC(=O)[C@@H]2C[C@@H](O)CN2C(=O)[C@@H](NC(=O)CCCCCc2ccc(Cl)c(OC[C@H](CCC(N)=O)NC(=O)[C@@H]3Cc4cccc5c4N3C(=O)[C@@H](NC(=O)c3cc4cc(C(=O)P(=O)(O)O)ccc4[nH]3)CC5)c2)C(C)(C)C)cc1 [Compound I-200] | > 1000 |
| Cn1c(=O)n(C2CCC(=O)NC2=O)c2ccc(C[C@H]3CC[C@H](CC(=O)N4CC[C@H]5CC[C@@H](C(=O)N[C@@H](CCC(N)=O)C(=O)NC(c6ccccc6)c6ccccc6)N5C(=O)[C@@H](NC(=O)c5cc6cc(C(=O)P(=O)(O)O)ccc6[nH]5)C4)CC3)cc21 (stereo partly drawn) [Compound I-166, 2-[[(5S,8S,10aR)-8-[[(1S)-3-carbamoyl-1-(diphenylmethylcarbamoyl)propyl]carbamoyl]-6-oxo-3-[2-[(1r, 4r)-4-[[1-(2,6-dioxopiperidin-3-yl)-3-methyl-2-oxo-1,3-benzodiazol-5-yl]methyl]cyclohexyl]acetyl]-octahydropyrrolo[1,2-a][1,5]diazocin-5-yl]carbamoyl]-1H-indole-5-carbonylphosphonic acid] | 10 to 100 |
| Cc1ncsc1-c1ccc(CNC(=O)[C@@H]2C[C@@H](O)CN2C(=O)[C@@H](NC(=O)CCCc2cccc3cc(CO[C@H](C)[C@H](CCC(N)=O)NC(=O)[C@@H]4Cc5cccc6c5N4C(=O)[C@@H](NC(=O)c4cc5cc(C(=O)P(=O)(O)O)ccc5[nH]4)CC6)ccc23)C(C)(C)C)cc1 [Compound I-133, diammonium 2-[[(2S,11S)-2-[[(3S,4R)-1-carbamoyl-4-[[5-(3-[[(2S)-1-[(2S,4R)-4-hydroxy-2-([[4-(4-methyl-1,3-thiazol-5-yl)phenyl]methyl]carbamoyl)pyrrolidin-1-yl]-3,3-dimethyl-1-oxobutan-2-yl]carbamoyl]propyl)naphthalen-2-yl]methoxy]pentan-3-yl]carbamoyl]-12-oxo-1-azatricyclo[6.4.1.0^[4,13]]trideca-4(13),5,7-trien-11-yl]carbamoyl]-1H-indole-5-carbonylphosphonate] | 100 to 1000 |
| Cc1ncsc1-c1ccc([C@H](C)NC(=O)[C@@H]2C[C@@H](O)CN2C(=O)[C@@H](NC(=O)CCCCc2ccc(CO[C@H](C)[C@H](CCC(N)=O)NC(=O)[C@@H]3Cc4cccc5c4N3C(=O)[C@@H](NC(=O)c3cc4cc(C(=O)P(=O)(O)O)ccc4[nH]3)CC5)cc2)C(C)(C)C)cc1 [Compound I-227] | 100 to 1000 |
| Cc1ncsc1-c1ccc(CNC(=O)[C@@H]2C[C@@H](O)CN2C(=O)[C@@H](NC(=O)[C@H]2C[C@H](Cc3ccc(CO[C@H](C)[C@H](CCC(N)=O)NC(=O)[C@@H]4Cc5cccc6c5N4C(=O)[C@@H](NC(=O)c4cc5cc(C(=O)P(=O)(O)O)ccc5[nH]4)CC6)cc3)C2)C(C)(C)C)cc1 [Compound I-146, diammonium 2-[[(2S,11S)-2-[[(3S,4R)-1-carbamoyl-4-[(4-[[(1r,3r)-3-[[(2S)-1-[(2S,4R)-4-hydroxy-2-([[4-(4-methyl-1,3-thiazol-5-yl)phenyl]methyl]carbamoyl)pyrrolidin-1-yl]-3,3-dimethyl-1-oxobutan-2-yl]carbamoyl]cyclobutyl]methyl]phenyl)methoxy]pentan-3-yl]carbamoyl]-12-oxo-1-azatricyclo[6.4.1.0^[4,13]]trideca-4(13),5,7-trien-11-yl]carbamoyl]-1H-indole-5-carbonylphosphonate] | 100 to 1000 |
| Cc1ncsc1-c1ccc(CNC(=O)[C@@H]2C[C@@H](O)CN2C(=O)[C@@H](NC(=O)CCCCCC#CCOC[C@H](CCC(N)=O)NC(=O)[C@@H]2Cc3cccc4c3N2C(=O)[C@@H](NC(=O)c2cc3cc(C(=O)P(=O)(O)O)ccc3[nH]2)CC4)C(C)(C)C)cc1 [Compound I-159] | 100 to 1000 |
| Cc1ncsc1-c1ccc([C@H](C)NC(=O)[C@@H]2C[C@@H](O)CN2C(=O)[C@@H](NC(=O)Cc2cccc(OC[C@H](CCC(N)=O)NC(=O)[C@@H]3Cc4cccc5c4N3C(=O)[C@@H](NC(=O)c3cc4cc(C(=O)P(=O)(O)O)ccc4[nH]3)CC5)c2)C(C)(C)C)cc1 [Compound I-256, 2-[[(2S,11S)-2-[[(2S)-4-carbamoyl-1-[3-([[(2S)-1-[(2S,4R)-4-hydroxy-2-[[(1S)-1-[4-(4-methyl-1,3-thiazol-5-yl)phenyl]ethyl]carbamoyl]pyrrolidin-1-yl]-3,3-dimethyl-1-oxobutan-2-yl]carbamoyl]methyl)phenoxy]butan-2-yl]carbamoyl]-12-oxo-1-azatricyclo[6.4.1.0^[4,13]]trideca-4(13),5,7-trien-11-yl]carbamoyl]-1H-indole-5-carbonylphosphonic acid] | > 1000 |
| Cn1c(=O)n(C2CCC(=O)NC2=O)c2ccc(CC[C@H]3CC[C@H](C(=O)N4CC[C@H]5CC[C@@H](C(=O)N[C@@H](CCC(N)=O)C(=O)NC(c6ccccc6)c6ccccc6)N5C(=O)[C@@H](NC(=O)c5cc6cc(C(=O)P(=O)(O)O)ccc6[nH]5)C4)CC3)cc21 (stereo partly drawn) [Compound I-203, 2-[[(5S,8S,10aR)-8-[[(1S)-3-carbamoyl-1-(diphenylmethylcarbamoyl)propyl]carbamoyl]-6-oxo-3-[(1r,4r)-4-[2-[1-(2,6-dioxopiperidin-3-yl)-3-methyl-2-oxo-1,3-benzodiazol-5-yl]ethyl]cyclohexanecarbonyl]-octahydropyrrolo[1,2-a][1,5]diazocin-5-yl]carbamoyl]-1H-indole-5-carbonylphosphonic acid] | 10 to 100 |
| CN1C(=O)CCC(n2c(=O)n(C)c3cc(CCCCCCC(=O)N4CC[C@H]5CC[C@@H](C(=O)N[C@@H](CCC(N)=O)C(=O)NC(c6ccccc6)c6ccccc6)N5C(=O)[C@@H](NC(=O)c5cc6cc(C(=O)P(=O)(O)O)ccc6[nH]5)C4)ccc32)C1=O (stereo partly drawn) [Compound I-150, 2-[[(5S,8S,10aR)-8-[[(1S)-3-carbamoyl-1-(diphenylmethylcarbamoyl)propyl]carbamoyl]-3-[7-[3-methyl-1-(1-methyl-2,6-dioxopiperidin-3-yl)-2-oxo-1,3-benzodiazol-5-yl]heptanoyl]-6-oxo-octahydropyrrolo[1,2-a][1,5]diazocin-5-yl]carbamoyl]-1H-indole-5-carbonylphosphonic acid] | > 1000 |
| Cn1c(=O)n(C2CCC(=O)NC2=O)c2ccc([C@H]3CC[C@H](CCC(=O)N4CC[C@H]5CC[C@@H](C(=O)N[C@@H](CCC(N)=O)C(=O)NC(c6ccccc6)c6ccccc6)N5C(=O)[C@@H](NC(=O)c5cc6cc(C(=O)P(=O)(O)O)ccc6[nH]5)C4)CC3)cc21 (stereo partly drawn) [Compound I-278, 2-[[(5S,8S,10aR)-8-[[(1S)-3-carbamoyl-1-(diphenylmethylcarbamoyl)propyl]carbamoyl]-6-oxo-3-[3-[(1r,4r)-4-[1-(2,6-dioxopiperidin-3-yl)-3-methyl-2-oxo-1,3-benzodiazol-5-yl]cyclohexyl]propanoyl]-octahydropyrrolo[1,2-a][1,5]diazocin-5-yl]carbamoyl]-1H-indole-5-carbonylphosphonic acid] | 100 to 1000 |
| CC(C)c1ccc(CNC(=O)[C@H](CCC(N)=O)NC(=O)[C@@H]2CC[C@@H]3CCN(C(=O)[C@H]4CC[C@@H](CCc5ccc6c(c5)n(C)c(=O)n6C5CCC(=O)NC5=O)CC4)C[C@H](NC(=O)c4cc5cc(C(=O)P(=O)(O)O)ccc5[nH]4)C(=O)N32)cc1 (stereo partly drawn) [Compound I-295, (2-(((5S,8S,10aR)-8-(((S)-5-amino-1-((4-isopropylbenzyl)amino)-1,5-dioxopentan-2-yl)carbamoyl)-3-((1r,4R)-4-(2-(1-(2,6-dioxopiperidin-3-yl)-3-methyl-2-oxo-2,3-dihydro-1H-benzo[d]imidazol-5-yl)ethyl)cyclohexane-1-carbonyl)-6-oxodecahydropyrrolo[1,2-a][1,5]diazocin-5-yl)carbamoyl)-1H-indole-5-carbonyl)phosphonic acid] | < 10 |
| Cc1ncsc1-c1ccc([C@H](C)NC(=O)[C@@H]2C[C@@H](O)CN2C(=O)[C@@H](NC(=O)CCCCCc2ccc([C@H](CCC(N)=O)NC(=O)[C@@H]3Cc4cccc5c4N3C(=O)[C@@H](NC(=O)c3cc4cc(C(=O)P(=O)(O)O)ccc4[nH]3)CC5)nc2)C(C)(C)C)cc1 [Compound I-238] | 100 to 1000 |
| Cn1c(=O)n(C2CCC(=O)NC2=O)c2ccc(C3CC(CCCC(=O)N4CC[C@H]5CC[C@@H](C(=O)N[C@@H](CCC(N)=O)C(=O)NC(c6ccccc6)c6ccccc6)N5C(=O)[C@@H](NC(=O)c5cc6cc(C(=O)P(=O)(O)O)ccc6[nH]5)C4)C3)cc21 (stereo partly drawn) [Compound I-228, 2-[[(5S,8S,10aR)-8-[[(1S)-3-carbamoyl-1-(diphenylmethylcarbamoyl)propyl]carbamoyl]-3-(4-[3-[1-(2,6-dioxopiperidin-3-yl)-3-methyl-2-oxo-1,3-benzodiazol-5-yl]cyclobutyl]butanoyl)-6-oxo-octahydropyrrolo[1,2-a][1,5]diazocin-5-yl]carbamoyl]-1H-indole-5-carbonylphosphonic acid] | 100 to 1000 |

Reference: patent publication US12077555B2, “STAT degraders and uses thereof” (Kymera Therapeutics, Inc., priority 2019, dated 2024)
